Patent US11925649B2, “Treatments for diabetic neuropathy” (University of Manitoba, priority 2010, dated 2024)

Tests used:
[1] = tested on: STZ-induced diabetic C57Bl6J mice; test: Reappearance of neuropathy after withdrawal of treatment; format: in vivo, mouse
Excerpt: Only 9 weeks later (the 17-wk time point) was there a significant reappearance of hypoalgesia in the previously treated STZ-induced diabetic mice (FIG. 12).

NDUFS3 = NDUFS3 expression in DRG of STZ-diabetic mice (Western blot); format: in vivo, mouse; conditions: daily injections for 8 weeks
Experimental: Quantitative Western blotting was performed as described in Example 15. Quantitative Western blotting was performed as previously disclosed by Chowdhury et al (2010) and Fernyhough et al. (1999). DRG homogenates of 5-10 μg of protein were resolved on a 10% SDS-PAGE gel and electroblotted onto nitrocellulose membrane. Blots were then blocked in 5% nonfat milk containing 0.05% Tween-20, rinsed in PBS (pH 7.4) and incubated with the following antibodies: monoclonal anti-cytochrome c oxidase subunit 4 (COX IV; 1:1000, Mitosciences, Eugene, OR, US), monoclonal anti-NADH dehydrogenase (ubiquinone) iron-sulfur protein 3 (NDUFS3, 1:1000, Mitosciences, Eugene, OR, US). Extracellular signal-regulated kinase (T-ERK; 1:2000, Covance, Princeton, NJ, US) was probed as a loading control. The blots were rinsed, incubated in Western blotting Luminol Reagent (Santa Cruz Biotechnology Inc., Santa Cruz, CA, US) and imaged using a BioRad Fluor-S image analyzer (BioRad, Hercules, CA, US).

[2] = tested on: STZ diabetic C57Bl6J mice; test: Prophylactic topical hydrogel application in STZ diabetic mice; format: in vivo, mouse
Experimental: Male C57Bl6J mice were made diabetic with 2 injections of 90 mg/kg STZ on consecutive days, and then separated into three groups. There were also two groups control (non-diabetic) mice. The first group of control (non-diabetic) mice received daily topical treatment with 50 μl Intrasite® hydrogel (Intrasite is a registered trademark of T. J. Smith and Nephew, Hull, England) to both hind paws, with a controlled exposure time of 20 minutes. […] The third group of mice were diabetic mice that received daily topical treatment with 50 μl hydrogel to both hind paws.
Two months after the second STZ injection, the function of the small sensory neurons in all five groups of mice were determined by measuring hind paw thermal response latency following the procedure described in Example 7.
The structural integrity of small sensory neurons was assessed by measuring IENF profiles in hind paw plantar skin as described in Example 7.
A suitable gel is exemplified by Intrasite® sterile hydrogel prod. no. 66027313 (Smith & Nephew Inc, St. Laurent, PQ, CA).

[3] = tested on: STZ-diabetic Swiss Webster mice; test: Reversal of diabetic sensory neuropathy with oral dosing; format: in vivo, mouse
Experimental: Male out-bred Swiss Webster mice were made diabetic with 2 injections of 90 mg/kg STZ on consecutive days. […] The mice were maintained for 8 weeks after STZ injections.

[4] = tested on: STZ diabetic Swiss Webster mice; test: Restorative subcutaneous injections in diabetic mice; format: in vivo, mouse; conditions: 10 mg/kg daily s.c. from week 14
Experimental: Male out-bred Swiss Webster mice were made diabetic with 2 injections of 90 mg/kg STZ on consecutive days. […] The mice were maintained for 14 weeks after STZ injections. […] At 14 weeks, the diabetic mice were separated into two groups. The first was the untreated group of diabetic mice.
The function of the small sensory neurons in diabetic and non-diabetic groups of mice were assessed at 5 wks, 7 wks, 11 wks, and 14 wks after the STZ injections.

[5] = tested on: STZ diabetic Sprague Dawley rats; test: Reversal of thermal hypoalgesia in diabetic rats, subcutaneous; format: in vivo, rat; conditions: 10 mg/kg daily s.c. from week 12; 20th week, 8 weeks of treatment
Experimental: One group of adult male Sprague Dawley rats were made diabetic with a single intraperitoneal injection of 75 mg/kg STZ, while a second group of adult male rats were maintained as non-diabetic controls. The two groups of rats were monitored for the onset of […] by assessing thermal latency at 4-wk intervals.

citrate synthase = test: Citrate synthase activity in DRG of STZ-diabetic mice; format: in vivo, mouse; conditions: daily injections for 8 weeks, lumbar DRG
Experimental: All measurements of enzymatic activities in lumbar DRG preparations were performed spectrophotometrically using a temperature controlled Ultrospec 2100 UV-visible spectrophotometer (Biopharmacia Biotech, Uppsala, Sweden) using the methods taught by Chowdhury et al. (2010). Complex I activity was measured as rotenone-sensitive NADH: cytochrome c reductase activity. Freshly prepared assay buffer (50 mmol/l K-phosphate pH 7.4, 1 mmol/l KCN, 100 μmol/l NADH) and 10 μg protein of DRG homogenate preparation were added to the cuvette and preincubated for 3 min at 25° C. After addition of 100 μmol/l oxidized cytochrome c, the reaction was followed for 2 minutes at 550 nm and then for 2 more minutes after addition of 25 μmol/l rotenone to allow calculation of the rotenone-sensitive Complex I activity. Complex IV activity was measured at 25° C. by monitoring the absorbance decrease of reduced cytochrome c at 550 nm as disclosed by Chowdhury et al. (2000, Clin. Chim. Acta 298: 157-173). […] Activity of the Krebs cycle enzyme, citrate synthase, was determined at 25° C. in medium containing 150 mmol/l Tris-HCl (pH 8.2), 0.02% laurylmaltoside, 0.1 mmol/l dithionitrobenzoic acid and 5 μg protein according to the method of Chowdhury et al (2007, Free Radic. Res. 41: 1116-1124). The reaction was initiated by addition of 100 μmol/l acetyl CoA and changes in absorbance at 412 nm were measured for 1 minute. […]

[6] = control (non-diabetic) mice, 10% hydrogel, treated hindpaw
[7] = diabetic mice, 2% or 10% hydrogel, vs control mice
[8] = daily oral gavage for 8 weeks from week 8

CN1CCN(CC(=O)N2c3ccccc3C(=O)Nc3cccnc32)CC1 [pirenzepine, 11-[2-(4-methylpiperazin-1-yl)acetyl]-5H-pyrido[2,3-b][1,4]benzodiazepin-6-1]
thermal hypoalgesia ([1]; 10 mg/kg daily s.c., after 8 weeks): hypoalgesia was prevented | time after stopping treatment to significant reappearance of hypoalgesia ([1]; treatment stopped at 8 weeks, 17-wk time point): 9 weeks | expression of NDUFS3 mitochondrial protein (NDUFS3): restored the expression | IENF per mm of skin [2, 6]: numerically, but statistically insignificant, increases | SNP per mm of skin [2, 6]: numerically, but statistically insignificant, increases | thermal response latency ([2]; control (non-diabetic) mice, daily topical hydrogel comprising 10% pirenzepine): not affected | levels of IENF in treated paw [2, 7]: no significant changes | levels of SNP in treated paw [2, 7]: no significant changes | thermal response latency in treated paw ([2]; diabetic mice, daily topical 2% or 10% hydrogel, vs control mice): did not demonstrate any significant changes | loss of IENF [3, 8]: reversed loss | loss of SNP [3, 8]: reversed loss | thermal hypoalgesia [3, 8]: reversed thermal hypoalgesia | efficacy of oral formulation ([3]; dissolved in water, administered orally to mice): exhibited efficacy | thermal latency ([4]; 21st week, 7 weeks of treatment): identical to the non-diabetic controls | IENF profiles ([4]; at 21 weeks): restored the IENF profiles to approximate those of the non-diabetic control mice | thermal latency ([4]; within 4 weeks of treatment (18 weeks)): significantly reduced thermal latency | thermal latency [5]: dropped to approximate the levels in the non-diabetic control rats | activity of citrate synthase (citrate synthase): restored the deficits
